Molecular target: HCV NS5B polymerase (NS5BCΔ21) (Hepatitis C virus genotype 1b, UniProt P26663)
Assay: NS5B inhibition assay
Assay type: biochemical
Settings: for fold decrease in activity relative to thiophene parent compound 5a: NS5B IC50 compared with compound 5a; for fold enhancement of inhibitory activity relative to 5-methyl analog 6a: NS5B IC50 compared with compound 6a; for fold more active than 15a: NS5B IC50 compared with compound 15a

O=C(O)/C(O)=C/C(=O)c1cc2cc(Br)ccc2o1 [Compound 3a, 4-(5-Bromobenzofuran-2-yl)-2-hydroxy-4-oxobut-2-enoic acid]
fold improvement in inhibitory activity over compound 2a (NS5B IC50 compared with compound 2a): ~ 3.5 fold

O=C(O)/C(O)=C/C(=O)c1cccs1 [Compound 5a, 2-Hydroxy-4-(thiophen-2-yl)-4-oxobut-2-enoic acid]
fold increase in inhibitory activity over compound 4a (NS5B IC50 compared with compound 4a): ~ 2.2 fold

Cc1ccc(C(=O)/C=C(\O)C(=O)O)s1 [Compound 6a, 2-Hydroxy-4-(5-methylthiophen-2-yl)-4-oxobut-2-enoic acid]
fold decrease in activity relative to thiophene parent compound 5a: approximately 3 fold

O=C(O)/C(O)=C/C(=O)c1ccc(Cl)s1 [Compound 7a, 2-Hydroxy-4-(5-chlorothiophene-2-yl)-4-oxobut-2-enoic acid]
fold enhancement of inhibitory activity relative to 5-methyl analog 6a: ~ 2 fold

O=C(O)/C(O)=C/C(=O)c1ccc(Br)s1 [Compound 8a, 4-(5-Bromothiophen-2-yl)-2-hydroxy-4-oxobut-2-enoic acid]
fold enhancement of inhibitory activity relative to 5-methyl analog 6a: ~ 2 fold

Cc1csc(C(=O)/C=C(\O)C(=O)O)c1 [Compound 10a, 2-Hydroxy-4-(4-methylthiophen-2-yl)-4-oxobut-2-enoic acid]
fold enhancement of inhibitory activity relative to 5-methyl analog 6a: ~ 2 fold

Cc1ccsc1C(=O)/C=C(\O)C(=O)O [Compound 11a, 2-Hydroxy-4-(3-methylthiophen-2-yl)-4-oxobut-2-enoic acid]
fold enhancement of inhibitory activity relative to 5-methyl analog 6a: ~ 7 fold

O=C(O)/C(O)=C/C(=O)c1nccs1 [Compound 12a, 2-Hydroxy-4-(4-thiazole-2-yl)-4-oxobut-2-enoic acid]
fold decrease in activity relative to thiophene parent compound 5a: ~ 1.8 fold

O=C(O)/C(O)=C/C(=O)c1ccccc1[N+](=O)[O-] [Compound 16a, 2-Hydroxy-4-(2-nitrophenyl)-4-oxobut-2-enoic acid]
fold more active than 15a: ~ 2 fold

O=C(O)/C(O)=C/C(=O)c1ccccc1F [Compound 17a, 4-(2-Fluorophenyl)-2-hydroxy-4-oxobut-2-enoic acid]
fold more active than 15a: ~ 2 fold

Reference: paper PMC3208381 (European journal of medicinal chemistry, 2011)
